This experiment has as its system PC12 cells. Put plainly: Neurite growth of NGF-stimulated PC12 cells with added ManNProp. The class given is cell-based. The settings on record: two days, control NGF only. As to the method: It is known that stimulation with nerve growth factor (NGF) causes neuronal differentiation in PC12 cells. At an NGF concentration of 250 ng/ml and after three days of incubation, the PC12 cells already form a network of neurites. In order to examine whether the addition of ManNProp has an influence on the neurite formation by PC12 cells, the suitable neurite lengths for different incubation times were first titrated with different NGF concentrations. At an NGF concentration of 100 ng and an incubation time of two days, the cells formed neurites whose length were double the diameter of their cell. Under such conditions, the further course of the experiments was set up. The cells were plated with a constant number of cells on culture chambers which consisted of four chambers and were coated with collagen I (col.), poly-D-lysine (PDL) or laminin, and incubated under three different sets of conditions. Each variation was represented in duplicate. In the first chamber, the PC12 cells were incubated with 5 mM ManNProp, and in the second chamber, they were incubated with 100 ng of NGF. […] The first and second chambers served as a reference control for the cells under the influence of NGF and ManNProp. For each experiment, three culture chambers were sown in duplicate. After two days of incubation, the cells were fixed with paraformaldehyde, stained with crystal violet and washed with water. For evaluation, various segments were photographed and measured according to a random choice principle. For the evaluation, only the cells stimulated with NGF which served as a control and the cells stimulated with NGF plus ManNProp were considered. Each bar represents three experiments performed on three different days. The relative neurite length was established by CAPA (computer-assisted process analysis), and the data were integrated by means of Delta Graph. All experiments shown here were independently performed on different days. The values from Table 1 were additionally represented graphically in FIG. 3.

With `CCC(=O)N[C@@H]1C(O)O[C@H](CO)[C@@H](O)[C@@H]1O` (stereo partly drawn) [ManNProp, N-propanoylmannosamine], the “Enhancement of neurite growth in percent relative to the control” value by setting is: (Col. (collagen I) coating, 0.5 mM ManNProp + 100 ng NGF) 3%; (Col. (collagen I) coating, 5 mM ManNProp + 100 ng NGF) 11%; (Col. (collagen I) coating, 25 mM ManNProp + 100 ng NGF) 20%; (Laminin coating, 0.5 mM ManNProp + 100 ng NGF) 28%; (Laminin coating, 5 mM ManNProp + 100 ng NGF) 70%; (Laminin coating, 25 mM ManNProp + 100 ng NGF) 59%. Also, the “Enhancement of neurite growth in percent relative to the control” value by setting is: (PDL (poly-D-lysine) coating, 0.5 mM ManNProp + 100 ng NGF) 4%; (PDL (poly-D-lysine) coating, 5 mM ManNProp + 100 ng NGF) 5%; (PDL (poly-D-lysine) coating, 25 mM ManNProp + 100 ng NGF) 17%.

(Values after patent US7217698B2, “Use of mannosamine derivatives for the stimulation of neurite growth” (Dompatent von Kreisler Selting Werner, priority 2001, dated 2007).)
